In patent US10617664B2, “Brain derived PPARα ligands” (Rush University Medical Center, priority 2015, dated 2020):

test system: NR2A, GluR1 and CREB; assay: Immunoblot and immunofluorescence of synaptic molecules in WT hippocampal neurons; format: cell-based, mouse; conditions: 5 μM HEX, 5 μM OCT, 50 μM HMB
Protocol: (FIG. 17A) Immunoblot analyses followed by densitometric analyses of NR2A (FIG. 17B), GluR1 (FIG. 17C) and CREB (FIG. 17D) were performed in Ppara-null and WT hippocampal neurons treated with 5 μM HEX, 5 μM OCT and 50 μM HMB. Data are mean±SD of three different experiments. ^ap<0.05 versus WT-control. Immunocytochemical analyses of NR2A (FIG. 17E) and GluR1 (FIG. 17F) in WT and Ppara-null hippocampal neurons treated with HEX, OCT and HMB. Hippocampal neurons were transduced with lenti-GFP for 48 h followed by treatment with different ligands. Immunoblot analyses followed by relative densitometric analyses of CREB in Ppara-null hippocampal neurons transduced with lentivirions containing different Ppara constructs followed by treatment with HEX (FIG. 17G-H), OCT (FIG. 17I-J) and HMB (FIG. 17K-L). Bands were scanned and presented as relative to control (FIG. 17H, HEX; FIG. 17J, OCT; FIG. 17L, HMB). Data are mean±SD of three different experiments. ^ap<0.05 vs FLPpara control.
Isolation of Mouse Hippocampal Neurons: Hippocampal neurons were isolated from fetuses (E18) of pregnant female Ppara-null and strain-matched WT littermate mice as described by us^6,13,35-36 with some modifications. Briefly, dissection and isolation procedures were performed in an ice-cold, sucrose buffer solution (sucrose 0.32 M, Tris 0.025 M; pH 7.4)^37. The skin and the skull were carefully removed from the brain by scissors followed by peeling off the meninges by a pair of fine tweezers. Next, a fine incision was made in the middle line around the circle of Willis and medial temporal lobe was opened up. Hippocampus was isolated as a thin slice of tissue located near the cortical edge of medial temporal lobe. Hippocampal tissues isolated from all fetal pups (n>10) were combined together and homogenized with 1 ml of trypsin for 5 minutes at 37° C. followed by neutralization of trypsin. The single cell suspension of hippocampal tissue was plated in the poly-D-lysine pre-coated 75 mm flask. Five min after plating, the supernatants were carefully removed and replaced with complete neurobasal media. The next day, 10 μM AraC was added to remove glial contamination in the neuronal culture. The pure cultures of hippocampal neurons were allowed to differentiate fully for 9-10 days before treatment^35,36,38.
For whole-cell and tissue lysates, samples were homogenized in RIPA buffer containing protease and phosphatase inhibitors (Sigma), passed 10 times through a 26-gauge needle, rotated end over end for 30 min at 4° C., and centrifuged for 10 min at 18,000×g. The supernatant was aliquoted and stored at −80° C. until use. Protein concentrations were determined using a NanoDrop 2000 (Thermo Fisher), and 15-30 μg sample was heat-denatured and resolved on 10% or 12% polyacrylamide-SDS gels, transferred to 0.45 μm nitrocellulose membranes under semidry conditions (15V for 12 min). Membranes were blocked for 1 h with blocking buffer (Li-Cor), incubated with primary antibodies overnight at 4° C. under shaking conditions, washed, incubated with IR-dye-labeled secondary antibodies (1:17,000; Li-Cor) for 45 min at room temperature, washed, and visualized with the Odyssey Infrared Imaging System (Li-Cor). Blots were converted to grayscale and then binary, analyzed using Fiji, and normalized to appropriate loading controls.

Row | SMILES | expression of CREB | expression of GluR1 | expression of NR2A
1 | CCCCCCCCCCCCCCCC(N)=O [HEX, hexadecanamide] | upregulated | upregulated | upregulated
2 | CCOC(=O)C(C)(C)C(C)O (stereo not drawn) [HMB] | upregulated | upregulated | upregulated
3 | CCCCCCCCC=CCCCCCCCC(N)=O [OCT, 9-octadecenamide] | upregulated | upregulated | upregulated
